Assay results from PubChem BioAssay AID330 (DTP/NCI, 2004).
Where “and” joins values, the source holds several entries; their conditions need not be identical. Equal values may be shown once. Inconclusive results and toxic doses are left out. Square brackets hold non-standard residues; d marks the D form. Peptide text beside a SMILES is read from it. ξ: configuration not given here. ξD = NC(CC(=O)O)C(=O)O

Test system: P388 leukemia ip, CD2F1 mice, survival T/C
Test: NCI In Vivo Anticancer Drug Screen. Data for tumor model P388 Leukemia (intraperitoneal) in CD2F1 (CDF1) mice
Details: endpoint: median survival time, higher = longer survival
In short: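 Mice carrying the transplanted tumor received test compound or vehicle. Survival was recorded in each group, and the value is the treated-group measurement divided by that of the vehicle-treated control group.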

[1] = dose: 100.0 mg/kg/injection, schedule: Q01DX009 (ip), vehicle: saline
[2] = dose: 200.0 mg/kg/injection, schedule: Q01DX009 (ip), vehicle: saline
[3] = dose: 400.0 mg/kg/injection, schedule: Q01DX009 (ip), vehicle: saline
[4] = dose: 50.0 mg/kg/injection, schedule: Q04DX003 (ip), vehicle: saline with Tween-80
[5] = dose: 100.0 mg/kg/injection, schedule: Q04DX003 (ip), vehicle: saline with Tween-80
[6] = dose: 200.0 mg/kg/injection, schedule: Q04DX003 (ip), vehicle: saline with Tween-80
[7] = dose: 400.0 mg/kg/injection, schedule: Q04DX003 (ip), vehicle: saline with Tween-80
[8] = dose: 50.0 mg/kg/injection, schedule: Q01DX009 (ip), vehicle: saline with Tween-80
[9] = dose: 50.0 mg/kg/injection, schedule: Q01DX005 (ip), vehicle: saline with Tween-80
[10] = dose: 100.0 mg/kg/injection, schedule: Q01DX009 (ip), vehicle: saline with Tween-80
[11] = dose: 200.0 mg/kg/injection, schedule: Q01DX009 (ip), vehicle: saline with Tween-80
[12] = dose: 50.0 mg/kg/injection, schedule: Q01DX009 (ip), vehicle: saline

NC(Cn1ccc(=O)c(O)c1)C(=O)O (stereo unspecified)
T/C (dose: 12.5 mg/kg/injection, schedule: Q01DX005 (ip), vehicle: saline): 113 % of control
T/C (dose: 25.0 mg/kg/injection, schedule: Q01DX005 (ip), vehicle: saline): 115 % of control
T/C (dose: 50.0 mg/kg/injection, schedule: Q01DX005 (ip), vehicle: saline): 107 % of control
T/C (dose: 100.0 mg/kg/injection, schedule: Q01DX005 (ip), vehicle: saline): 116 % of control
T/C [1]: 100 % of control and 96 % of control
T/C (dose: 200.0 mg/kg/injection, schedule: Q01DX005 (ip), vehicle: saline): 114 % of control
T/C [2]: 102 % of control and 114 % of control
T/C [3]: 107 % of control and 96 % of control
T/C (dose: 600.0 mg/kg/injection, schedule: Q01DX009 (ip), vehicle: saline): 98 % of control and 102 % of control

CC1(C)CC(O)C2(CO)C(C1)C1=CCC3C4(C)CCC(O)C(C)(C)C4CCC3(C)C1(C)C(O)C2O (stereo unspecified)
T/C (dose: 5.25 mg/kg/injection, schedule: Q01DX005 (ip), vehicle: Klucel (hydroxypropylcellulose) (HPC)): 100 % of control
T/C (dose: 10.5 mg/kg/injection, schedule: Q01DX005 (ip), vehicle: Klucel (hydroxypropylcellulose) (HPC)): 103 % of control
T/C (dose: 21.0 mg/kg/injection, schedule: Q01DX005 (ip), vehicle: Klucel (hydroxypropylcellulose) (HPC)): 94 % of control
T/C (dose: 42.0 mg/kg/injection, schedule: Q01DX005 (ip), vehicle: Klucel (hydroxypropylcellulose) (HPC)): 99 % of control

O=C1OC2(CCCC2)OC(=O)C1=C/C=C/c1ccc([N+](=O)[O-])o1
T/C [4]: 99 % of control
T/C [5]: 100 % of control and 114 % of control and 96 % of control
T/C [6]: 102 % of control and 112 % of control and 96 % of control
T/C [7]: 103 % of control and 121 % of control and 86 % of control
T/C (dose: 800.0 mg/kg/injection, schedule: Q04DX003 (ip), vehicle: saline with Tween-80): 115 % of control

CCOC1=C(N2CC2)C(=O)C(OCC)=C(N2CC2)C1=O
T/C (dose: 1.25 mg/kg/injection, schedule: Q01DX009 (ip), vehicle: saline): 171 % of control
T/C (dose: 2.5 mg/kg/injection, schedule: Q01DX009 (ip), vehicle: saline): 242 % of control

COC(=O)NN(C(=O)OC)C12CCCCC1N(C(=O)OC)N(C(=O)OC)c1c2ccc2cc(OC)ccc12 (stereo unspecified)
T/C (dose: 100.0 mg/kg/injection, schedule: Q01DX001 (ip), vehicle: Klucel (hydroxypropylcellulose) (HPC)): 96 % of control
T/C (dose: 200.0 mg/kg/injection, schedule: Q01DX001 (ip), vehicle: Klucel (hydroxypropylcellulose) (HPC)): 92 % of control
T/C (dose: 400.0 mg/kg/injection, schedule: Q01DX001 (ip), vehicle: Klucel (hydroxypropylcellulose) (HPC)): 91 % of control

CCOC(=O)C1C(=O)N2C(=O)C(NC(C)=O)=C(O)C2C1c1ccccc1 (stereo unspecified)
T/C (dose: 100.0 mg/kg/injection, schedule: Q04DX002 (ip), vehicle: saline with Tween-80): 100 % of control
T/C (dose: 200.0 mg/kg/injection, schedule: Q04DX002 (ip), vehicle: saline with Tween-80): 99 % of control
T/C (dose: 400.0 mg/kg/injection, schedule: Q04DX002 (ip), vehicle: saline with Tween-80): 100 % of control

c1ccc2c[n+](CC[n+]3ccc4ccccc4c3)ccc2c1
T/C (dose: 25.0 mg/kg/injection, schedule: Q01DX009 (ip), vehicle: saline with Tween-80): 100 % of control
T/C [8]: 118 % of control

CCOC(=O)c1ccc(N2N=C3C(=CC(=O)c4ccccc43)SCC2=O)cc1
T/C (dose: 12.5 mg/kg/injection, schedule: Q01DX005 (ip), vehicle: saline with Tween-80): 112 % of control
T/C (dose: 25.0 mg/kg/injection, schedule: Q01DX005 (ip), vehicle: saline with Tween-80): 117 % of control
T/C [9]: 116 % of control

C[Si](Cn1ccc(=O)[nH]c1=O)(c1ccccc1)c1ccccc1
T/C (dose: 100.0 mg/kg/injection, schedule: Q01DX001 (ip), vehicle: saline with Tween-80): 109 % of control
T/C (dose: 200.0 mg/kg/injection, schedule: Q01DX001 (ip), vehicle: saline with Tween-80): 100 % of control
T/C (dose: 400.0 mg/kg/injection, schedule: Q01DX001 (ip), vehicle: saline with Tween-80): 95 % of control

COc1ccc(C2NC(c3ccc(OC)cc3)C3CCCC2C3O)cc1 (stereo unspecified)
T/C (dose: 100.0 mg/kg/injection, schedule: Q04DX003 (ip), vehicle: saline): 100 % of control
T/C (dose: 200.0 mg/kg/injection, schedule: Q04DX003 (ip), vehicle: saline): 97 % of control
T/C (dose: 400.0 mg/kg/injection, schedule: Q04DX003 (ip), vehicle: saline): 94 % of control

C=C(C)C(=NC1CCCCC1)NC(C)(C)C
T/C (dose: 25.0 mg/kg/injection, schedule: Q01DX005 (ip), vehicle: Klucel (hydroxypropylcellulose) (HPC)): 99 % of control
T/C (dose: 50.0 mg/kg/injection, schedule: Q01DX005 (ip), vehicle: Klucel (hydroxypropylcellulose) (HPC)): 100 % of control
T/C (dose: 100.0 mg/kg/injection, schedule: Q01DX005 (ip), vehicle: Klucel (hydroxypropylcellulose) (HPC)): 99 % of control and 102 % of control

N#Cc1ccc(NN=NCCCl)cc1
T/C (dose: 12.5 mg/kg/injection, schedule: Q01DX009 (ip), vehicle: distilled water + Tween-80): 114 % of control
T/C (dose: 12.5 mg/kg/injection, schedule: Q01DX009 (ip), vehicle: distilled water + alcohol): 95 % of control
T/C (dose: 25.0 mg/kg/injection, schedule: Q01DX009 (ip), vehicle: distilled water + alcohol): 91 % of control
T/C (dose: 50.0 mg/kg/injection, schedule: Q01DX009 (ip), vehicle: distilled water + alcohol): 97 % of control
T/C (dose: 100.0 mg/kg/injection, schedule: Q01DX009 (ip), vehicle: distilled water + Tween-80): 87 % of control
T/C (dose: 100.0 mg/kg/injection, schedule: Q01DX009 (ip), vehicle: distilled water + alcohol): 88 % of control

CCC1(/C=N/NC(N)=O)NC(=O)NC1=O (stereo unspecified)
T/C [9]: 93 % of control
T/C (dose: 100.0 mg/kg/injection, schedule: Q01DX005 (ip), vehicle: saline with Tween-80): 96 % of control
T/C (dose: 200.0 mg/kg/injection, schedule: Q01DX005 (ip), vehicle: saline with Tween-80): 88 % of control

CNC(=O)OCc1ccccc1-c1ccccc1
T/C [8]: 98 % of control
T/C [10]: 97 % of control
T/C [11]: 95 % of control

O=C(CCl)Nc1nc(NC(=O)CCl)nc(NC(=O)CCl)n1
T/C (dose: 100.0 mg/kg/injection, schedule: Q04DX002 (ip), vehicle: saline): 96 % of control
T/C (dose: 200.0 mg/kg/injection, schedule: Q04DX002 (ip), vehicle: saline): 96 % of control
T/C (dose: 400.0 mg/kg/injection, schedule: Q04DX002 (ip), vehicle: saline): 95 % of control

O=Cc1ccc2nc(C(Cl)(Cl)Cl)ccc2c1
T/C [8]: 100 % of control
T/C [10]: 105 % of control
T/C [11]: 100 % of control

Nc1ncn[nH]1
T/C [12]: 99 % of control and 105 % of control
T/C [1]: 98 % of control and 97 % of control
T/C [2]: 100 % of control and 106 % of control
T/C [3]: 99 % of control

O=C(O)c1cccc([N+](=O)[O-])c1O
T/C (dose: 50.0 mg/kg/injection, schedule: Q01DX009 (ip), vehicle: Klucel (hydroxypropylcellulose) (HPC)): 102 % of control
T/C (dose: 100.0 mg/kg/injection, schedule: Q01DX009 (ip), vehicle: Klucel (hydroxypropylcellulose) (HPC)): 105 % of control
T/C (dose: 200.0 mg/kg/injection, schedule: Q01DX009 (ip), vehicle: Klucel (hydroxypropylcellulose) (HPC)): 101 % of control
T/C (dose: 400.0 mg/kg/injection, schedule: Q01DX009 (ip), vehicle: Klucel (hydroxypropylcellulose) (HPC)): 100 % of control

c1ccc2c(c1)[nH]c1nc3ncncc3nc12
T/C [12]: 100 % of control
T/C [1]: 100 % of control
T/C [2]: 100 % of control

NCC(=O)NC(CC(=O)O)C(=O)O (stereo unspecified) (H-Gly-[ξD]-OH)
T/C [5]: 100 % of control
T/C [6]: 93 % of control
T/C [7]: 94 % of control

CS(=O)(=O)OCCCCCCCCCOS(C)(=O)=O
T/C (dose: 12.5 mg/kg/injection, schedule: Q01DX009 (ip), vehicle: saline sonified): 109 % of control
T/C (dose: 25.0 mg/kg/injection, schedule: Q01DX009 (ip), vehicle: saline sonified): 122 % of control
T/C (dose: 33.0 mg/kg/injection, schedule: Q04DX003 (ip), vehicle: saline with Tween-80): 109 % of control
T/C (dose: 50.0 mg/kg/injection, schedule: Q01DX009 (ip), vehicle: saline sonified): 118 % of control
T/C [4]: 122 % of control
T/C (dose: 75.0 mg/kg/injection, schedule: Q04DX003 (ip), vehicle: saline with Tween-80): 159 % of control

COc1ccc2c(c1OC)C(CC(C)=O)N1CCc3cc4c(cc3C1C2=O)OCO4 (stereo unspecified)
T/C (dose: 60.0 mg/kg/injection, schedule: Q01DX005 (ip), vehicle: Klucel (hydroxypropylcellulose) (HPC)): 100 % of control
T/C (dose: 120.0 mg/kg/injection, schedule: Q01DX005 (ip), vehicle: Klucel (hydroxypropylcellulose) (HPC)): 92 % of control
T/C (dose: 240.0 mg/kg/injection, schedule: Q01DX005 (ip), vehicle: Klucel (hydroxypropylcellulose) (HPC)): 88 % of control
